Experiment in all cases: NCI tumour cell line growth inhibition, 48 h
The test system of experiment [1] is OVCAR-4 ovarian.
In experiment [2] the test system is SK-MEL-28 melanoma.
Experiment [3] deals with UACC-62 melanoma.
Experiment [4] concerns NCI-H522 lung.
Experiment [5] deals with SK-OV-3 ovarian.
The subject of experiment [6] is M19-MEL melanoma.
Experiment [7] has as its system SNB-75 CNS.
Experiment [8] has as its system KM20L2 colon.
Experiment [9] has as its system MCF7 breast.
The subject of experiment [10] is LOX IMVI melanoma.
The subject of experiment [11] is T-47D breast.

The results in this text go back to PubChem BioAssay (NCI).

Values joined by “and” are separate entries in the source; they are usually repeats but may differ in a detail not shown here. Identical values can stand only once.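 How tested: cells in 96-well plates exposed to compound for 48 hours at five concentrations. The concentration for 50% growth inhibition is given as GI50. TGI: concentration producing complete growth inhibition.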

On to `CC(C)(C)C1=Cc2cc3cc(C(C)(C)C)[nH]c(=O)c3cc2S(=O)(=O)N1`, for which the TGI is greater than 100 µM in experiment [1]; greater than 100 µM in experiment [2]; 42 µM in experiment [3]; 32.3 µM in [4]; greater than 100 µM in [5]; 40.7 µM in experiment [6]. For the same compound, the TGI in experiment [7] is greater than 100 µM.
As for `C/C(=C\c1ccccc1)C(=O)CCN1CCOCC1`, the TGI in experiment [1] is 32.9 µM; in experiment [8], 36.1 µM; in experiment [2], 35.4 µM; in [3], 32.6 µM; in experiment [4] it was 22.3 µM; in [5] it was greater than 100 µM. Besides, the TGI is 20.9 µM in experiment [9], 33.8 µM in experiment [6], greater than 66.1 µM in experiment [7] and 34.6 µM in experiment [10].
For the compound `CN(C)C(CN)CC1=C(CC(CN)N(C)C)CCC1` (stereo unspecified), the TGI in [1], in experiment [8], in experiment [2], in experiment [3], in experiment [4] and in [5] was greater than 100 µM each time. In addition, the TGI in experiment [9], in [6], in [7] and in [10] was greater than 100 µM in each case.
With `NC(=O)C(=O)N/N=C1/c2ccccc2CC1C1(O)C(=O)Nc2c(Cl)cc(Cl)cc21` (stereo unspecified), the TGI in experiment [1], in experiment [8], in experiment [2], in [3], in [4] and in [5] was greater than 100 µM in each case. The TGI in experiment [6], in experiment [7] and in experiment [10] was greater than 100 µM each time.
As to `CCOC(=O)C1=C(C(C)=O)CSC(c2ccccc2)=N1`, the TGI in [1], in experiment [8], in [2], in experiment [3], in [4] and in experiment [5] was greater than 100 µM each time. In addition, the TGI in experiment [9], in experiment [6], in experiment [7] and in experiment [10] was greater than 100 µM each time.
Regarding `C=C1C(=O)OC2/C=C(\CO)C(OC(C)=O)CC(O)/C(C)=C/C(OC(=O)C(C)CC)C12` (stereo unspecified), the TGI in experiment [1] was 32.5 µM and > 100 µM; in experiment [8], 58.6 µM; in experiment [2], 32.3 µM and 70.1 µM; in [3] it was 32.3 µM and 38 µM; in experiment [4] it was 15.6 µM and 20.3 µM; in experiment [5] it was greater than 100 µM. Moreover, the TGI is 25.8 µM in [9]; 33 µM in experiment [6]; 69.3 µM and 96.3 µM in experiment [7]; 30.7 µM in [11]; 29.3 µM and 38.3 µM in experiment [10].
In the case of `C/C(=N/NC(N)=S)c1ccc2ccccc2c1`, the TGI in [1] is greater than 100 µM; in [8], 80.4 µM; in experiment [2] it was greater than 100 µM; in experiment [3], 28.6 µM; in experiment [4], 41 µM; in [5], 51.6 µM. In addition, the TGI in experiment [6] is greater than 100 µM; in experiment [7], 96.3 µM; in experiment [10], greater than 100 µM.
As to `COCOc1ccc(OC)cc1`, the TGI in [1], in [8], in experiment [2], in experiment [3], in experiment [5] and in experiment [9] was greater than 100 µM throughout. For the same compound, the TGI in experiment [6], in [7] and in experiment [10] was greater than 100 µM each time.
On to `COc1cc(/C=C/C(=O)O)ccc1C(=O)O/C=C/c1ccccc1`, for which the TGI in experiment [1], in experiment [8], in experiment [2], in experiment [3], in experiment [4] and in experiment [5] was greater than 100 µM throughout. The TGI in [9], in experiment [6], in experiment [7] and in [10] was greater than 100 µM each time.
Regarding `CCCCOC(C)(C)/C=C/C(O)[C@](C)(O)[C@H]1[C@H](O)C[C@@]2(C)[C@@H]3CCc4c(cc(OC5OC(CO)C(O)C(O)C5O)c(O)c4C)C3(C)C(=O)C[C@]12C` (stereo partly specified), the TGI in experiment [1], in experiment [2], in [3], in [4], in experiment [5] and in experiment [9] was greater than 100 µM each time. For the same compound, the TGI in experiment [7], in [11] and in [10] was greater than 100 µM in each case.
On to `COc1cccc(-c2cc(=O)c3c(C)cc(C)nc3[nH]2)c1`, for which the TGI in experiment [1] is greater than 100 µM; in [2], greater than 100 µM; in experiment [3] it was greater than 100 µM; in [4], 11.5 µM; in experiment [5] it was greater than 100 µM; in experiment [9], 27.3 µM. Besides, the TGI was 0.671 µM in experiment [7], greater than 100 µM in experiment [11] and greater than 100 µM in experiment [10].
`O=C(Nc1cccc2cnccc12)c1cc2c(cc1Cl)Sc1nccn1S2(=O)=O`: the TGI in experiment [1] worked out at 87.1 µM; in [2] it was 53.1 µM; in [3], 26 µM; in [4], 33.2 µM; in experiment [5], 86 µM; in [9], 37.1 µM. Further, the TGI in [7] was determined as 47.4 µM; in [11], 40.8 µM; in experiment [10], 31.8 µM.
In the case of `COC(=O)c1ccccc1/C=C1/Cc2ccccc2C1=O`, the TGI in experiment [1], in experiment [2], in experiment [3], in experiment [4], in experiment [5] and in [9] was greater than 100 µM in each case. Besides, the figures for the TGI in experiment [7], in [11] and in [10] were greater than 100 µM, greater than 100 µM and 39.9 µM, respectively.
For the compound `CC(=O)OC(C)c1cc2c(s1)C(=O)c1sccc1C2=O` (stereo unspecified), the TGI in experiment [1] turned out to be 3.5 µM; in [2] it was 3.64 µM; in experiment [3], 3.05 µM; in experiment [4] it was 3.34 µM; in [5], 9.73 µM; in experiment [9] it was 3.9 µM. The TGI was 2.63 µM in experiment [7], 6.2 µM in experiment [11] and greater than 100 µM in [10]. For the same compound, the GI50 in experiment [3] is 1.38 µM.
Turning to `CCC12C[N+]3([O-])CCc4c([nH]c5ccccc45)C(C(=O)OC)(c4cc5c(cc4OC)N(C)C4C(O)(C(=O)OC)C(OC(C)=O)C6(CC)C=CCN7CCC54C76)CC(C3)C1O2` (stereo unspecified), the TGI was found to be 45.9 µM in [1]; 1.52 µM in experiment [8]; 0.959 µM in experiment [2]; 16.2 µM in [3]; 0.282 µM in experiment [4]; 7.34 µM in [5]. Further, the TGI in experiment [6] was found to be 16 µM; in experiment [7] it was 0.952 µM; in experiment [10], 51.7 µM.
Consider `c1ccc2c(c1)[nH]c1nc3cc(-c4ccc5nc6c(nc5c4)[nH]c4ccccc46)ccc3nc12`, for which the TGI in experiment [1] was greater than 100 µM; in experiment [2], greater than 100 µM; in experiment [3], greater than 100 µM; in experiment [4], 78.4 µM; in [5] it was greater than 100 µM; in experiment [9] it was greater than 100 µM. Moreover, the TGI in [7], in [11] and in experiment [10] was greater than 100 µM throughout.
Take `CCCCn1c2c(n(CCCC)c1=S)-c1c(n(CCCC)c(=S)n1CCCC)S[Se][Se]S2`: the TGI was greater than 37.4 µM in experiment [1]; greater than 61.4 µM in experiment [2]; 22.3 µM in [3]; 0.479 µM in [4]; 55.1 µM in experiment [5]; greater than 100 µM in [9]. In addition, the TGI was found to be 31.5 µM in experiment [7], 2.04 µM in experiment [11] and 27.2 µM in experiment [10].
Consider `O=c1c2ncn(C3CC(O)C(CO)O3)c2nnn1Cc1ccccc1[N+](=O)[O-]` (stereo unspecified), for which the TGI in [1], in experiment [2], in experiment [3], in experiment [4], in experiment [5] and in [9] was greater than 100 µM each time. For the same compound, the TGI in [7], in experiment [11] and in experiment [10] was greater than 100 µM each time.
Regarding `O=C1C(c2c(O)[nH]c3ccc(S(=O)(=O)O)cc23)=Nc2ccccc21`, the TGI in experiment [1], in [2], in [3], in experiment [4], in experiment [5] and in experiment [9] was greater than 100 µM in each case. Moreover, the TGI in experiment [7], in experiment [11] and in experiment [10] was greater than 100 µM throughout.
Turning to `O=C(O)[C@@H]1C[C@@H](O)CN1C(=O)OCc1ccccc1`, the TGI in experiment [1], in [2], in experiment [3], in experiment [4], in experiment [5] and in experiment [9] was greater than 100 µM throughout. Also, the TGI in experiment [7], in [11] and in experiment [10] was greater than 100 µM in each case.
Consider `NC(CSCc1ccccc1)C(=O)O` (stereo unspecified), for which the TGI in experiment [1], in experiment [2], in experiment [3], in experiment [4], in experiment [5] and in experiment [9] was greater than 100 µM in each case. The TGI in experiment [7], in experiment [11] and in experiment [10] was greater than 100 µM throughout.
Regarding `CCN(CC)CCNc1ccc2nnn3c4ccc(OC)cc4c(=O)c1c23`, the TGI in [1] was 19.9 µM; in [8], 20 µM; in [2] it was 28.9 µM; in [3], 25.7 µM; in experiment [4] it was 19.6 µM; in experiment [5], 34.6 µM. Besides, the figures for the TGI in experiment [6], in experiment [7] and in experiment [10] were 26.3 µM, 21 µM and 11.1 µM, respectively.
Consider `Nc1c2ccccc2nc2c1ccc1ncccc12`, for which the TGI in experiment [1] is 63 µM; in experiment [2], greater than 100 µM; in experiment [3] it was 37.8 µM; in experiment [4] it was 38.3 µM; in experiment [5], greater than 100 µM; in [9], 72.1 µM. In addition, the TGI is 99.4 µM in experiment [7], greater than 100 µM in experiment [11] and 53.5 µM in experiment [10].
For the compound `COc1cc(OCc2ccc3oc(=O)c(-c4ccccc4)nc3c2)cc(OC)c1OC`, the TGI in experiment [1], in [2], in experiment [3], in [4], in experiment [5] and in [9] was greater than 100 µM each time. Moreover, the TGI in [7], in experiment [11] and in experiment [10] was greater than 100 µM in each case.
